Results from US9820923B2, “Succinate derivatives” (Symrise AG, priority 2013, dated 2017).

Key:
[1] = system: B16V mouse melanoma cells; test: Depigmentation effect on melanoma cell cultures; assay type: cell-based; settings: 0.6 mM tyrosine and 10 nM MSH, 96 h, read-out: IC50 (Inhibition of pigmentation)
Procedure: B16V mouse melanoma cells are disseminated in a 96-well micro-titre plate in a concentration of 7.5×10^3 cells/well. After cultivation for 24 h at 37° C. and 5% CO2 in RPMI medium, enriched with 10% foetal calf serum, various concentrations of the test substances and 0.6 mM tyrosine and 10 nM-MSH (-melanocyte stimulating hormone) are added and incubated for a further 96 h. The maximum concentration of the test substances used corresponds to 0.1 times the value of the IC20 value of the cytotoxicity assay. Only tyrosine and -MSH are added to the controls. After incubation, sodium hydroxide solution (final concentrations: 1 M) is added to the culture medium and the absorption (A) is measured after 3 h at 400 nm.
The inhibition of pigmentation in the presence of the test compounds was calculated using the following equation: Inhibition of pigmentation (%)=100−[(Atest compound/Acontrol)×100] wherein • Atest compound=absorption of the wells with test substance and with cells • Acontrol=absorption of the wells without test substance, but with cells
From the inhibition of pigmentation (%) in a series of dilutions of test compounds, the IC50 for each test compound is calculated. This is the concentration of a test compound at which pigmentation is inhibited by 50%.

[2] = system: Primary human dermal fibroblasts; test: Cellular in vitro DCF assay (intracellular ROS); assay type: cell-based; design: unit of the concentration uncertain
Procedure: Primary human dermal fibroblasts (Lonza) are disseminated in a 96-well microtiter plate in a concentration of 1×10^4 cells/well (DMEM, 10% FKS). After cultivation in fully enriched medium (DMEM, 10% FCS) for 24 h at 37° C. and 5% CO2, the serum content was reduced to 0.1% for further 24 h to synchronize the cell cycle. Confluence was supposed to be around 70% at the time, the incubation with the test substances began. Various concentrations of the test substances, two backgrounds (untreated cells), control (possible with solvent) and Trolox as internal standard (1000 μM) were applied to the cells in DMEM and incubated for further 18-20 h. […], 100 μl H2DCF-DA-solution (2,7-Dichlorfluorescein, 10 μM) incl. DAPI (1:1000) was added to all samples (excluded the background-control) and incubated for one hour to de-esterify the H2DCF-DA by cellular esterases. The resulting H2DCF was thereby trapped inside the cell. After the incubation, the cells were washed and the prooxidant challenge was set (1 mM, 1 h). The resulting fluorescence was read at Ex 504 nm; Em 524 nm. An increased level of ROS (reactive oxygen species) led to an increased amount of fluorescence.
Results are mean values from 2 independent experiments with quadruple determinations each.
The inhibition of the oxidation in the presence of test substances was calculated according to the following equation: […]
The abbreviations have the following meanings: • RFU DAPI: Relative fluorescence units (Ex 380/20, Em 440/40) of the wells with test substance, DAPI and DCF treatment, with cells • RFU DCF: Relative fluorescence units (Ex 485/20, Em 528/20) of the wells with test substance, DAPI and DCF treatment, with cells • RFU control: Relative fluorescence units of the wells without test substance, DAPI and DCF treatment, with cells (The control was calculated like the other samples.) • RFU BLANK: Relative fluorescence units of the wells without test substance, without DAPI and DCF treatment but with cells

[3] = system: HHFSC (Human Hair Follicle Stem Cells); test: Cellular in vitro stem cell protection assay (UVB-induced apoptosis, caspase 3/7); assay type: cell-based; settings: light or radiation study, 25 mJ/cm^2 UVB, read-out: Inhibition of UV induced apoptosis [%]
Procedure: HHFSC (Human Hair Follicle Stem Cells) isolated from hair follicle bulge (Celprogen) were cultivated in culture ware pre-coated with Human Hair Follicle Stem Cell Extra-cellular Matrix (Celprogen). The cells were incubated 2 h prior to and 16 h after UVB irradiation with test compounds. Cells were irradiated with 25 mJ/cm^2 UVB in the presence of buffer solution. Apoptosis induction was evaluated by caspase 3/7 protein expression (Caspase-Glo 3/7, Promega) and quantified by chemiluminescence measurement.
The inhibition of apoptosis induction in the presence of test substances was calculated according to the following equation: […]
The abbreviations have the following meanings: • RLU test substance: • RLU of the wells with test substance and with UVB irradiation • RLU control: • RLU of the wells without test substance, but with UVB irradiation • RLU control without UVB: • RLU of the wells without test substance and without UVB irradiation

Hyaluronic acid = test: Cellular in vitro hyaluronic acid assay on NHDF (competitive ELISA); assay type: cell-based, human; settings: 72 h
Procedure: NHDF (normal human dermal fibroblasts) cells were disseminated in a 96-well microtiter plate in a concentration of 2×10^4 cells/well (DMEM, 10% FCS). After cultivation in fully enriched medium (DMEM, 10% FCS) for 72 h at 37° C. and 5% CO2, the serum content was reduced to 0.1% to synchronize the cell cycle and incubated for further 24 h. Various concentrations of the test substances and TGF-beta1 as internal standard are added and incubated for 72 h. The maximum concentration of the test substances used corresponds to 0.2 times the value of the IC20 of the cytotoxicity assay. Hyaluronic acid is quantified by a competitive ELISA (TECOmedical TE1017).
The percent bound for each standard and unknown substance is calculated using the following equation: […]
A standard curve is generated by plotting the aborptions of the given concentrations in a linear proportion. The gradient of the line is determined and the value of the substances calculated as follows: • 1. value=1/RFU • 2. value=((1. value)−b)/m) • Compound of Hyaluronic acid [ng/ml]=2. value*dilution

Heme Oxygenase-1 = test: Cellular in vitro heme oxygenase-1 expression assay on NHDF (Western blot); assay type: cell-based, human; settings: 24 h, 0.0134% b.w.
Procedure: NHDF (normal human dermal fibroblasts) cells were disseminated in a 6-well plate in a concentration of 2×10^5 cells/well (DMEM, 10% FCS). After cultivation in fully enriched medium (DMEM, 10% FCS) for 72 h at 37° C. and 5% CO2, the serum content was reduced to 0.1% to synchronize the cell cycle. Various concentrations of the test substances, the negative control (untreated cells) and tert. butylhydrochinon as positive control, are added and incubated for a further 24 h. The maximum concentration of the test substances used corresponds to 0.2 times the value of the IC20 of the cytotoxicity assay. After cell lysis, the protein amount was determined using the Biorad BCA assay. All samples were adjusted to the same protein level before application on a fast Criterion Gel (Biorad) to perform electrophoresis for 20 minutes at 300 V. Thereafter the proteins were transferred to a PVDF membrane on a semi-dry blotter (30 minutes, 25 V). The blotted membrane is blocked for 4 hours in a 5% milk powder solution in TBST at 4° C. After washing, the membrane is incubated with the first antibody solution HO-1 from abcam (1:500 in 1% milk powder in TBST) over night. […] The resulting band pattern is detected with a chemiluminescence sensitive camera system (Vil-ber Loumat). The quantification was done by densitometry, using the Image J freeware software.

With CC1CC(OC(=O)CCC(=O)N(C)C)CC(C)(C)C1 (stereo not shown) [S7a/S7b**] as the molecule, how does the IC50 [1] read?
Its IC50 is 18.4 µM.

And the “Intracellular ROS reduction [%]” value ([2]; concentration 1 (unit uncertain))?
Its value is −2%.

What about the “Intracellular ROS reduction [%]” value ([2]; concentration 10 (unit uncertain)) of the same molecule?
Its value is 11%.

What about the “Intracellular ROS reduction [%]” value ([2]; concentration 50 (unit uncertain)) of the same molecule?
The value was 16.3%.

What about the “Intracellular ROS reduction [%]” value ([2]; concentration 100 (unit uncertain)) of the same molecule?
The value was 19.5%.

What about the inhibition at 20 µM ([3]; 0.02 mM) of the same molecule?
The inhibition at 20 µM was 5%.

What about the inhibition at 200 µM ([3]; 0.20 mM) of the same molecule?
Its inhibition at 200 µM is 32%.

And the “Stimulation (Hyaluronic acid stimulation relative to control)” value (Hyaluronic acid; 0.00012 % b.w.)?
The value was 34.4%.

What about the “Stimulation (Hyaluronic acid stimulation relative to control)” value (Hyaluronic acid; 0.00120 % b.w.) of the same molecule?
Its value is 67.3%.

And the “Up-regulation (HO1-Amount relative to control)” value (Heme Oxygenase-1)?
Its value is 14.5-fold.
